Results from patent US20250032490A1, “THERAPEUTIC REGIMENS FOR TREATMENT OF PAROXYSMAL NOCTURNAL HEMOGLOBINURIA” (Achillion Pharmaceuticals, Inc., priority 2017, published 2025).

B1: Eculizumab: monoclonal antibody complement inhibitor of the terminal component C5; only approved therapy for PNH (antibody, chains of the INN, looked up)
heavy: QVQLVQSGAEVKKPGASVKVSCKASGYIFSNYWIQWVRQAPGQGLEWMGEILPGSGSTEYTENFKDRVTMTRDTSTSTVYMELSSLRSEDTAVYYCARYFFGSSPNWYFDVWGQGTLVTVSSASTKGPSVFPLAPCSRSTSESTAALGCLVKDYFPEPVTVSWNSGALTSGVHTFPAVLQSSGLYSLSSVVTVPSSNFGTQTYTCNVDHKPSNTKVDKTVERKCCVECPPCPAPPVAGPSVFLFPPKPKDTLMISRTPEVTCVVVDVSQEDPEVQFNWYVDGVEVHNAKTKPREEQFNSTYRVVSVLTVLHQDWLNGKEYKCKVSNKGLPSSIEKTISKAKGQPREPQVYTLPPSQEEMTKNQVSLTCLVKGFYPSDIAVEWESNGQPENNYKTTPPVLDSDGSFFLYSRLTVDKSRWQEGNVFSCSVMHEALHNHYTQKSLSLSLG
light: DIQMTQSPSSLSASVGDRVTITCGASENIYGALNWYQQKPGKAPKLLIYGATNLADGVPSRFSGSGSGTDFTLTISSLQPEDFATYYCQNVLNTPLTFGQGTKVEIKRTVAAPSVFIFPPSDEQLKSGTASVVCLLNNFYPREAKVQWKVDNALQSGNSQESVTEQDSKDSTYSLSSTLTLSKADYEKHKVYACEVTHQGLSSPVTKSFNRGEC

Assays:
[1] = system: PNH erythrocytes; test: CAP-mediated hemolysis assay with PNH erythrocytes (subject A); assay type: cell-based, human; settings: for Inhibition (%) of CAP activity: Compound 1 0 μM
Experimental: Complement-preserved normal human serum (NHS) from an individual donor of ABO blood group type AB (NHS-AB) was purchase from BioreclamationIVT (Westbury, NY). Gelatin veronal buffer (GVB), pH 7.3, without Ca^++ and Mg^++ (GVB^0) and 100 mM MgCl2 +100 mM EGTA (MgEGTA) were obtained from Complement Technology Inc. (Tyler, TX).
GVB^0·MgEGTA was prepared by mixing GVB^0 and 100 mM MgEGTA in a 9:1 ratio. PNH erythrocytes were used within five days of blood collection; before assay cells were collected by centrifugation at 800×g and 4° C. for 3 minutes and resuspended in fresh cold GVB^0·MgEGTA to a density of 5×10^8 cells/mL.
50 μL of NHS-AB was added to each well. The plates were mixed and incubated at room temperature for 5 minutes. 24 μL of this NHS-AB with compound was then transferred to duplicate wells of V-bottom microtiter plates each containing 76 μL GVB0·MgEGTA. 20 μL PNH erythrocytes was then added to each well and the plates were sealed, mixed, and incubated at 37° C. for 30 minutes with an added shaking for 15 minutes. […] Following incubation, PNH cells were removed by centrifugation at 800×g and 4° C. for 3 minutes, 100 μL supernatant per well was transferred to flat-bottom clear microtiter plates, and A405 of the supernatant was measured in a Molecular Devices Spectramax Plus plate reader.
Combinatorial interactions were analyzed via two methods.
Inhibition was analyzed by the method of Prichard and Shipman (Prichard, M. N. and C. Shipman, Jr. A Three-Dimensional Model to Analyze Drug-Drug Interactions. Antiviral Research 1990, 14:181-205) Three-dimensional surface graphs of each experiment were generated and analyzed using an Excel spreadsheet program adapted from the MacSynergy II spreadsheet (University of Alabama, Birmingham, AL). The X-axis and Y-axis of each surface graph represent the concentrations of the two test compounds, and the Z-axis represents the difference between measured inhibition and a theoretically determined additive inhibition. For an additive relationship, the surface graph resembles a horizontal plane at Z=0, whereas positive surface peaks indicate greater inhibition than expected and therefore synergy, and negative surface peaks indicate less inhibition than expected and therefore antagonism.
Synergy and antagonism volumes were calculated separately as the summed volumes of peaks respectively above and below the Z=0 plane. Volumes were determined using 95% confidence limits to assure significance.
Inhibition was analyzed by the method of Chou and Talalay (Chou, T.-C. and P. Talalay. Analysis of Combined Drug Effects: A New Look at a Very Old Problem. Trends Pharmacol. Sci. 1983, 4:450-454; Chou, T. C. Theoretical basis, experimental design, and computerized simulation of synergism and antagonism in drug combination studies. Pharmacological Reviews 2006, 58:621-681). Analysis using the median-effect equation of Chou and Talalay was performed with CompuSyn software (ComboSyn, Inc, Paramus, NJ). […] Combination index (CI) values were determined at inhibition values of 50%, 75%, and 90%.

[2] = system: C3 fragment deposition on artificial PNH cells; test: C3 fragment deposition on artificial PNH cells (flow cytometry); assay type: cell-based; settings: 32% acidified C5-depleted normal human serum; read-out: IC50, inhibition of C3 fragment deposition on artificial PNH cells
Experimental: C5-depleted normal human serum (C5-Dpl NHS), gelatin veronal buffer (GVB) without Ca^++ and Mg^++ (GVB^0), 100 mM MgCl2+100 mM EGTA (MgEGTA) were obtained from Complement Technology Inc. (Tyler, TX). GVB^0·MgEGTA was prepared by mixing GVB^0 and 100 mM MgEGTA in a 9:1 ratio. FITC-conjugated anti-C3c antibody (cat #ab4212) and Alexa Fluor® 647-conjugated anti human CD59 antibody (cat #:ab187769) were purchased from Abcam (Cambridge, MA). […] Ferrone, and F. Mercuriali, The Action of Two Sulfhydryl Compounds on Normal Human Red Cells. Relationship to Red Cells of Paroxysmal Nocturnal Hemoglobinuria. Blood, 1965. 25: p. 502-10). After AET treatment, artificial PNH erythrocytes were centrifuged, supernatant was aspirated and cells were thoroughly washed with phosphate buffered saline (PBS) 3 times followed by washing with GVB^0 buffer ([…]) for additional 3 times. […] C3 fragment deposition on the surface of the erythrocytes was assessed by flow cytometry with BD Accuri C6 cytometer (BD Biosciences, San Jose, CA). […] IC50 values from each experiment were determined by curve-fitting of experimental data (the % C3 fragment-positive cells at increasing concentrations of inhibitor) to the four-parameter sigmoidal dose-response equation using non-linear regression analysis (Prism Software, GraphPad, La Jolla, CA).

[3] = system: C3 fragment deposition on rabbit erythrocytes; test: C3 fragment deposition on rabbit erythrocytes (flow cytometry); assay type: cell-based; settings: 20% C5-depleted normal human serum; read-out: IC50, inhibition of C3 fragment deposition on rabbit erythrocytes
Experimental: Rabbit erythrocytes, C5-depleted normal human serum (C5-Dpl NHS), gelatin veronal buffer (GVB) without Ca^++ and Mg (GVB^0), 100 mM MgCl2+100 mM EGTA (MgEGTA) were obtained from Complement Technology Inc. (Tyler, TX). GVB^0·MgEGTA was prepared by mixing GVB^0 and 100 mM MgEGTA in a 9:1 ratio. FITC-conjugated anti-C3c antibody (cat#ab4212) and Alexa Fluor® 647-conjugated anti human CD59 antibody (cat#: ab187769) were purchased from Abcam (Cambridge, MA).
Reactions were incubated at 37° C. for 15 minutes, the reactions were quenched by addition of EDTA at a final concentration of 20 mM. Cells were stained with a FITC-conjugated anti-C3c antibody at a dilution of 1:200 and C3 fragment deposition on the surface of rabbit erythrocytes was assessed by flow cytometry with BD Accuri C6 cytometer (BD Biosciences, San Jose, CA). Forward and side scatter parameters were used to gate intact erythrocytes. Controls included cells labeled with FITC-conjugated antibody isotype control. IC50 values from each experiment were determined by curve-fitting of experimental data (the % C3 fragment-positive cells at increasing concentrations of inhibitor) to the four-parameter sigmoidal dose-response equation using non-linear regression analysis (Prism Software, GraphPad, La Jolla, CA).

Molecule | Inhibition (%) of CAP activity ([1]; Experiment 2, Compstatin 0-300 μM) [%] | Inhibition (%) of CAP activity ([1]; Experiment #1, Compstatin 0-300 μM) [%] | inhibition at the high end of the test concentration ranges ([1]; single agent, PNH erythrocytes) | IC50 [2] [µM] | IC50 [3] [µM] | Inhibition (%) of CAP activity ([1]; Experiment 2, Eculizumab 0-400 μg/mL) [%] | Inhibition (%) of CAP activity ([1]; Experiment #1, Eculizumab 0-400 μg/mL) [%]
CC[C@H](C)[C@H](N)C(=O)N[C@H]1CSSC[C@@H](C(=O)N[C@H](C(N)=O)[C@@H](C)O)NC(=O)[C@H](CCCN=C(N)N)NC(=O)[C@H](Cc2cnc[nH]2)NC(=O)[C@H](Cc2cnc[nH]2)NC(=O)CNC(=O)[C@H](Cc2c[nH]c3ccccc23)NC(=O)[C@H](CC(=O)O)NC(=O)[C@H](CCC(N)=O)NC(=O)[C@H](C(C)C)NC(=O)[C@H](C(C)C)NC1=O [Compstatin, reference compound] | 0 | 0 | complete inhibition | 2.2 | 1.4 | – | –
B1 | – | – | – | – | – | 0 | 0
